In US8575112B2, “Small peptide modulators of potassium channel trafficking” (University of Houston System, priority 2009, dated 2013):

How the values were obtained:
Assay type in all cases: cell-based
[1] = tested on: Slo1VEDEC; experiment: Cell-surface biotinylation assay, HEK293T cells expressing Myc-Slo1VEDEC, after peptide delivery; details: HEK293T cells expressing Myc-tagged Slo1VEDEC, 1 mg peptide delivered with PULSin, compared to R-PE control
Protocol: (§1) HEK293T (human embryonic kidney) cells were grown in Dulbecco's modified Eagle's medium (Invitrogen) containing heat-inactivated 10% fetal bovine serum (FBS) and penicillin-streptomycin (Invitrogen) at 37° C. in a 5% CO2 incubator. Cells were transiently transfected for 24 to 48 hours using Lipofectamine 2000 (Invitrogen) in the serum-reduced medium OPTI-MEM, Invitrogen) following the manufacturer's instructions. The immortalized and undifferentiated mouse podocyte cell line was grown in RPMI1640 with 10% FBS supplied with 10 U/mL interferon-g (INF-γ) at 33° C. in a 5% CO2 incubator. Podocytes' differentiation was induced by removing INF-γ and switching to 37° C. in a 5% CO2 incubator for 14 days.
(§2) Cell-surface biotinylation was carried out by labeling cells with 1 mg/mL EZ-Link Sulfo-NHS-Biotin reagents (Pierce) in PBS (137 mM NaCl, 10 mM Phosphate, 2.7 mM KCl, pH 7.4) at 4 C with gentle shaking for 1.5 hours, which was followed by incubating the labeled cells in the cold PBS containing 100 mM glycine for additional 20 minutes at 4° C. to stop the reaction. […]
(§3) All samples were loaded and separated on 10% SDS-PAGE. […] Slo1 proteins were detected by primary antibodies, including mouse anti-Myc, mouse anti-HA, rabbit anti-VEDEC, rabbit anti-QEERL, and rabbit anti-Slo1 (APC107, Alomone labs) antibodies, as indicated. […]

[2] = tested on: heterologously and endogenously expressed Slo1 channels; experiment: Intracellular delivery of VEDEC-motif peptides, surface expression of Slo1 channels (summary statement); details: intracellular delivery of peptide
[3] = tested on: endogenous Ca2+-activated K+ channels (BKCa) in podocytes; experiment: Whole-cell recordings from differentiated mouse podocytes after peptide delivery
Protocol: FIG. 7A depicts whole cell recording analyses are carried out in differentiated mouse podocytes treated with either R-PE (control) or IREVEDEC (SEQ ID NO: 9) peptides. The recording electrode contained free Ca^2+ of 5 μM and currents are evoked by a series of depolarizing steps from a holding potential of −60 mV. Representative whole-cell current traces are shown above bar graphs Left: R-PE control (Ctrl); Right: IREVEDEC (SEQ ID NO: 9) peptides. […] Asterisk indicates p<0.05.
as §1
Whole cell recordings were performed in HEK293T transiently expressing different Slo1 constructs using standard methods. […]

[4] = tested on: Slo1QEERL; experiment: Cell-surface biotinylation assay, HEK293T cells expressing Myc-Slo1QEERL, after peptide delivery; details: HEK293T cells expressing Myc-tagged Slo1QEERL by itself; 1 mg peptide delivered with PULSin; compared to R-PE control
Protocol: as §1, §2, §3

**Q.** With “IREVEDEC (Octopetide modulator of Calcium activated Potassium channels) [NH2-IREVEDEC-COOH, octopeptide containing the VEDEC motif, synthesized by Peptide 2.0]” as the sequence, how does the “total expression of Slo1VEDEC” value [1] read?
**A.** The value was “no effect”.

**Q.** What about the “surface expression of Slo1VEDEC” value ([1]; densitometry of immunoblots) of the same sequence?
**A.** The value was “increases”.

**Q.** What about the “surface expression of heterologously and endogenously expressed Slo1 (BKCa) channels” value [2] of the same sequence?
**A.** The value was “increase”.

**Q.** And the “current through Ca2+-activated K+ channels (current density at +60 mV)” value ([3]; differentiated mouse podocytes, 3 mg octopeptide with PULSin, electrode free Ca2+ 5 μM, vs R-PE control, n=33 cells, p<0.05)?
**A.** Its value is “large increase”.

**Q.** And the “activation or deactivation kinetics of macroscopic currents” value ([3]; mouse podocytes, whole-cell recording, data not shown)?
**A.** The value was “does not alter”.

**Q.** And the “surface expression of Slo1QEERL” value [4]?
**A.** The value was “no effect”.

**Q.** What about the “total expression of Slo1QEERL” value [4] of the same sequence?
**A.** The value was “no effect”.
